Tests used:
[1] = biological target: T1, human EGFR exon 20 H773_V774insNPH (Homo sapiens, UniProt P00533, INS773NPH); experiment: EGFR Exon20 NPH insertion cellular phosphorylation inhibition (MSD pEGFR Y1068/total EGFR); assay type: cell-based; details: Ba/F3 EGFR NPH ins cells, 4 h compound, p-EGFR(Y1068)/total EGFR;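 also: IL3-independent Ba/F3 cells with constitutively phosphorylated EGFR, compound exposure at 37 °C under 5% CO2, electrochemiluminescent MSD measurement of the p-EGFR to total EGFR ratio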
T1 construct: host or cells: Ba/F3

[2] = biological target: T2, human EGFR exon 20 V769_D770insASV (Homo sapiens, UniProt P00533, INS769ASV); experiment: EGFR Exon20 ASV insertion cellular phosphorylation inhibition (MSD pEGFR Y1068/total EGFR); assay type: cell-based; details: Ba/F3 EGFR ASV ins cells, 4 h compound, p-EGFR(Y1068)/total EGFR;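 also: electrochemiluminescent readout on an MSD SECTOR Imager, IL3-independent transduced cells in medium with 1% FBS, compound concentration series at 37 °C and 5% CO2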
T2 construct: expressed in transfected cells; host or cells: Ba/F3 (DSMZ ACC-300), lentiviral transduction, puromycin selection, IL3 depletion

[3] = biological target: T3, EGFR L858R&T790M (Homo sapiens, UniProt P00533, L858R/T790M); experiment: EGFR L858R and T790M cellular phosphorylation inhibition in NCI-H1975 (MSD); assay type: cell-based; details: NCI-H1975 cells, 4 h compound, p-EGFR(Y1068)/total EGFR; read-out: EGFR L858R and T790M mutation IC50;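 also: phosphorylated and total EGFR detected by electrochemiluminescence, cells exposed to compound in medium containing 1% FBS at 37 °C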
T3 construct: host or cells: NCI-H1975
Experimental: One day before the test, WT or mutant cells were seeded in 96 well plates at appropriate concentrations with corresponding growth media supplemented with 1% FBS, and incubated overnight. The next day, tested compounds at a series of concentrations were added into each individual well of the plates, and the plates were incubated for 4 h at 37° C. with 5% CO2.
The EGFR (Y1068) phosphorylation level (activity) of cells in each well were then measured with MSD kit named “MULTI-SPOT®96 4-Spot HB Prototype EGFR Triplex [sequence]: pEGFR(Tyr1068),pEGFR(Tyr1173), Total EGFR” according to the manufacturer’s instruction (MESO SCALE DISCOVERY, Cat# N45ZB-1). The assay is an electrochemiluminescent method for determining both phosphorylated and total EGFR of cells with an MSD SECTOR® Imager and the ratio of p-EGFR/total EGFR can be generated by the machine. The Her2 (Y1248) phosphorylation level (activity) of cells in each well were measured with MSD Kit named “Phospho-ErbB2 (Tyr1248) Assay Whole Cell Lysate Kit” according to the manufacturer’s instruction (MESO SCALE DISCOVERY, Cat# K151CLD-3). The assay is an electrochemiluminescent method (MESO SCALE DISCOVERY) for determining both phosphorylated and total Her2 of cells with an MSD SECTOR® Imager and then the ratio of p-Her2/total Her2 can be generated by the machine.

[4] = biological target: T4, human Her2 exon 20 insertion mutation YVMA (Homo sapiens, UniProt P04626, INS775YVMA); experiment: Her2 Exon 20 YVMA insertion cellular phosphorylation inhibition (MSD p-Her2 Y1248/total Her2); assay type: cell-based; details: Her2 YVMAins cells, 4 h compound;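 also: lentivirally transduced NIH-3T3 cells in 1% FBS medium, electrochemiluminescent MSD read-out, graded compound concentrations at 37 °C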
T4 construct: expressed in transfected cells; host or cells: NIH-3T3, lentiviral transduction, puromycin selection

[5] = biological target: T5, WT EGFR (Homo sapiens, UniProt P00533); experiment: WT EGFR cellular phosphorylation inhibition in A-431 (hEGF stimulated, MSD); assay type: cell-based; details: A431 cells, 4 h compound, then 100 ng/ml hEGF 10 min;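 also: electrochemiluminescence read-out of EGFR Tyr1068 phosphorylation expressed as ratio to total EGFR, cells kept in medium with 1% FBS, compounds tested as a concentration series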
T5 construct: host or cells: A-431

[6] = tested on: Ba/F3 EGFR NPH ins cells; experiment: Cell proliferation, Ba/F3 EGFR NPH ins (CellTiter-Glo, 72 h); assay type: cell-based; details: Ba/F3 EGFR, 72 h, Ba/F3 EGFR NPH ins, 72 h proliferation; read-out: EGFR Exon20 NPH insertion GI50;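 also: IL3-independent cells carrying constitutively phosphorylated EGFR, compound dilution series, viable cells quantified by ATP luminescence, growth relative to DMSO wells after subtracting pre-dosing (day 0) baseline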
[7] = tested on: Ba/F3 EGFR ASV ins cells; experiment: Cell proliferation, Ba/F3 EGFR ASV ins (CellTiter-Glo, 72 h); assay type: cell-based; details: Ba/F3 EGFR, 72 h, Ba/F3 EGFR ASV ins, 72 h proliferation; read-out: EGFR Exon20 ASV insertion GI50;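 also: IL3-independent Ba/F3 cells transduced with EGFR V769_D770insASV, cellular ATP luminescence after compound exposure, growth relative to DMSO control with the day-0 baseline reading subtracted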
[8] = tested on: NCI-H1975 EGFR L858R/T790M cells; experiment: Cell proliferation, NCI-H1975 EGFR L858R/T790M (CellTiter-Glo, 72 h); assay type: cell-based; details: Homo sapiens, NCI-H1975, 72 h, NCI-H1975, 72 h proliferation; read-out: EGFR L858R and T790M mutation GI50;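 also: viable cells quantified by luciferase-based ATP luminescence, proliferation expressed relative to DMSO-treated wells (100%) after subtracting a parallel plate read at the time of dosing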
Experimental: WT or mutant cells were seeded in 384 well plates at appropriate concentrations with corresponding growth media supplemented with 10% FBS, for each experiment, identical plates were prepared in duplicates, and the plates were incubated overnight. On the next day, one of each duplicated plates was dosed with tested compounds at a series of concentrations, and another one of the duplicated plate was analysied for G0 value. The dosed plates were incubate for another 72 h at 37° C. with 5% CO2 and the number of viable cells in each well of the G0 plates or the dosed plates were measured by CellTiter-Glo® Luminescent Cell Viability Assay (Promega). This assay is a luminescent method for determining the number viable cells through measurement of cellular ATP concentration by detection of luciferase activity. Detection reagents (15 µl) was dispensed into per well, and the plates were incubate for 30 min at room temperature. Then, the luminescence in each well was measured using the Envision plate reader (PerkinElmer). The percentage of proliferation was calculated based on the formula: %Proliferation= 100 × (G3 value of sample well-Go value)/(G3 value of DMSO control-Go value).

[9] = tested on: Her2 exon 20 insertion YVMA transduced NIH-3T3 cell line; experiment: Cell proliferation, Her2 YVMAins NIH-3T3 (CellTiter-Glo, 72 h); assay type: cell-based; details: Mus musculus, NIH3T3, 72 h, Her2 YVMAins cells, 72 h proliferation; read-out: Her2 Exon 20 YVMA insertion GI50;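 also: viable cells quantified by ATP luminescence, growth over a day-zero baseline plate expressed as percent of DMSO control growth, compound dilution series in 10% FBS medium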
[10] = tested on: WT EGFR cell line A-431; experiment: Cell proliferation, WT EGFR A431 (CellTiter-Glo, 72 h); assay type: cell-based; details: Homo sapiens, A-431, 72 h, A431, 72 h proliferation; read-out: EGFR WT A431 GI50;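 also: proliferation from a luminescent ATP viability signal, expressed as 100 × (treated minus time-zero plate) over (DMSO control minus time-zero plate), cells grown with 10% FBS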
[11] = tested on: OCI-LY-10 cells; experiment: BTK (wt) cell proliferation, OCI-LY-10 (CellTiter-Glo, 72 h); assay type: cell-based; details: Homo sapiens, OCI-Ly10, 72 h, OCI-LY-10 cells, 72 h, CellTiter-Glo; read-out: BTK WT OCI-LY-10 GI50;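 also: viable cells quantified via cellular ATP luminescence, proliferation given as percent of DMSO control after subtracting a duplicate plate read at time of dosing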
[12] = tested on: TMD-8 cells; experiment: BTK (wt) cell proliferation, TMD-8 (CellTiter-Glo, 72 h); assay type: cell-based; details: Homo sapiens, TMD8, 72 h, TMD-8 cells, 72 h, CellTiter-Glo; read-out: BTK WT TMD-8 GI50;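 also: viable cells quantified by ATP-based luminescence, proliferation expressed as percent of DMSO control after subtracting a time-zero baseline plate read at dosing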
[13] = tested on: Ri-1 cells; experiment: BTK (wt) cell proliferation, Ri-1 (CellTiter-Glo, 72 h); assay type: cell-based; details: Ri-1, 72 h, Ri-1 cells, 72 h, CellTiter-Glo; read-out: BTK WT Ri-1 GI50;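 also: viable cells quantified as cellular ATP luminescence, proliferation normalized to a time-zero plate and the DMSO control, compounds tested across a dilution series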
Experimental: (§1) OCI-LY-10 at 3,750 cells/well, TMD-8 and Ri-1 at 2,000 cells/well, and DB at 1,250 cells/well, respectively, were sorted into 384-well plates in RPMI1640 medium with 10% FBS. After overnight incubation, all cells were incubated with compound at a series of concentrations. Meanwhile, a duplicated plate of each cell line was prepared for measuring G0 value. The dosed plates were further incubated for 72 hours and the number of viable cells was measured by CellTiter-Glo® Luminescent Cell Viability Assay (Promega), a luminescent method for determining the number of viable cells through measurement of cellular ATP concentration using Envision plate reader (PerkinElmer). The percentage of proliferation was calculated as: % Proliferation = 100 × (G3 value of sample well - G0 value)/(G3 value of DMSO control - G0 value).

[14] = tested on: DB cells; experiment: BTK (wt) cell proliferation, DB (CellTiter-Glo, 72 h); assay type: cell-based; details: Homo sapiens, DB, DB cells, CellTiter-Glo, read-out: Non-BCR activated DB GI50;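 also: DB cells in 384-well plates given a dilution series of compound, viable cells read by ATP luminescence, growth expressed versus DMSO control after subtracting a time-zero plate reading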
Experimental: as §1

[15] = Rat pharmacokinetic study after oral administration (SOA); assay type: in vivo; details: male Han Wistar rats; for SOA DN AUCSYS (ng·h/mL)/(mg/kg): dose-normalised systemic AUC; for Cmax: rat, plasma, nominal 10 mg/kg (actual dose in c1)
Experimental: For rat pharmacokinetic studies, six male Han Wistar rats were purchased from Beijing Vital River and orally dosed with the test compound at 10 mg/kg in 0.5% Tween-80 and 0.5% hydroxypropyl methylcellulose (v/w). At, 0.5, 1, 2, 4, 7 and 16 hours post-dose, blood samples (>100 µL/time point) were collected from portal vein and via cardiac puncture into separate K2EDTA […] tubes, and then immediately centrifuged at 1500 g, 5 min at 4° C. to separate plasma. The plasma samples were deproteinized with 4 fold acetonitrile (including internal standard), vortex for 10 min and centrifuges for 10 minutes at 4000 g at 4° C.. The supernatantswere submitted to LC/MS/MS (API 5500, Applied Biosystems, Foster City) analysis. Two sets of standard curves were run at the beginning and end of each batch from plasma sample analysis.
Compound absorption was measured by portal vein AUC (AUCHPV) and systemic AUC (AUCSYS) observed maximum concentration (Cmax) in rats after oral administration. Dose is the actual dose used in SOA study. Find below in Table 9 data for exemplary tested compounds.

[16] = In vitro rat hepatocytes clearance assay; details: male, rat, cryopreserved rat hepatocytes (suspension), rat hepatocytes Clint (µL/min/10^6cells), 1 µM-range incubation up to 100 min
Experimental: The protocol for rat/human hepatocytes metabolic stability assay is employed to determine the clearance of the compounds of the present disclosure in vitro.
Rat hepatocytes in male gender and human hepatocytes in mixed gender were obtained from commercial vendors (e.g., BioreclamationIVT) and stored at -150° C. prior to use. 10 mM stock solutions of tested compounds were prepared in DMSO. Thawing medium and supplement incubation medium (serum-free) were placed in a 37° C. water bath for at least 15 minutes prior to use. Stock solutions were diluted to 100 µM by combining 198 µL acetonitrile and 2 µL of 10 mM stock solution.
Vials of cryopreserved hepatocytes were removed from storage, ensured that vials remain at cryogenic temperatures. The vials were thawed in a 37° C. water bath with gently shaking. Vials were kept in water bath until all ice crystals had dissolved and were no longer visible. Vials were sprayed with 70% ethanol before being transferred to a biosafety cabinet. And then the contents were poured into the 50 mL thawing medium conical tube. Vials were centrifuged at 100 g for 10 minutes at room temperature.
Cell viability and density were counted using a Trypan Blue exclusion, and then cells were diluted with serum-free incubation medium to a working cell density of 1 × 10^6 viable cells/ml. […] The inactivated hepatocytes were used to prepare negative samples, which were used to exclude the misleading factor that resulted from instability of chemical itself.
Aliquots of 247.5 µL hepatocytes were dispensed into each well of a 96-well non-coated plate. The plate was placed in the incubator on an orbital shaker for approximately 10 minutes. Aliquots of 2.5 µL of the 100 µM test compounds were added into respective wells of the non-coated 96-well plate to start the reaction. This assay was performed in duplicate. The plate was incubated in the incubator on an orbital shaker for the designed time points. […] Samples were centrifuges for 20 minutes at 4000 g and aliquots of 100 µL of the supernatants were used for LC-MS/MS analysis for measurement of test compounds
In vitro hepatocyte clearance was estimated based on determination of elimination half-life (T½) of compounds disappearance from their initial concentrations. Peak area ratios of each compound (test or control) to IS was calculated. Ln (%Control) versus Incubation Time (min) curve was plotted, and the slope of a linear fitting line was calculated.

[17] = In vitro human hepatocytes clearance assay; details: both, human, cryopreserved human hepatocytes (suspension), human hepatocytes Clint (µL/min/10^6cells), mixed gender human hepatocytes, incubation up to 100 min

T5 sequence (P00533 25-1210): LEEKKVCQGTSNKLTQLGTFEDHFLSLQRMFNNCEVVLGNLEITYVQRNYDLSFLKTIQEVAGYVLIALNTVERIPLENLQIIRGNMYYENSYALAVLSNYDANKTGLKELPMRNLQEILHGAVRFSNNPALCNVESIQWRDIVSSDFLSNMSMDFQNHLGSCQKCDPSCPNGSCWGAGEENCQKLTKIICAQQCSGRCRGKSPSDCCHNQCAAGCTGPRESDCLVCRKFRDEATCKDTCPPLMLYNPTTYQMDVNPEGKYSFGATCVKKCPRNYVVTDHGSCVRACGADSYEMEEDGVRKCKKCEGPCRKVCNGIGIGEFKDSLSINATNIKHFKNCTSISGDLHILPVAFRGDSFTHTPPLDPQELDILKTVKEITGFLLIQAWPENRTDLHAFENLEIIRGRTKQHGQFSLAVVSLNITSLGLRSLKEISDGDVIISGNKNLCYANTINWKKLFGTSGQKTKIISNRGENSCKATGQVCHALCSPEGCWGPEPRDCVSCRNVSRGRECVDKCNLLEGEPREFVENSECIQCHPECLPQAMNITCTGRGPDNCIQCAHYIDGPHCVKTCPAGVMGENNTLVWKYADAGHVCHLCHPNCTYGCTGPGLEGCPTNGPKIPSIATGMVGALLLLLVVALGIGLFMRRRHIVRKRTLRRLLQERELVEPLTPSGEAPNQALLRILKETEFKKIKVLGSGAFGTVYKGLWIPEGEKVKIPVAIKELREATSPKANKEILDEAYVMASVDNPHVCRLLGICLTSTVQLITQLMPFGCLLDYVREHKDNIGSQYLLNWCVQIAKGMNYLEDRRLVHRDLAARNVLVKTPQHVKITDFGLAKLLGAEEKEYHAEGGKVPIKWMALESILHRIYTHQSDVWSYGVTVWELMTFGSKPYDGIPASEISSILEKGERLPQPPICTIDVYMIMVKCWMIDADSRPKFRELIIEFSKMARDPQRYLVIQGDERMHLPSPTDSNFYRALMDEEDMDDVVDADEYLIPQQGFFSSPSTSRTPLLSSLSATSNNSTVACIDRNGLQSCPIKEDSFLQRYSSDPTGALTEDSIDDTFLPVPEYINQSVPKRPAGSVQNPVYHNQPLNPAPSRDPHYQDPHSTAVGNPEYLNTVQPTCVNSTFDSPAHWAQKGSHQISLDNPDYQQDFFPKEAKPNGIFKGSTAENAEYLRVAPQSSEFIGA
T2 sequence (P00533 with tags, fused parts or gaps INS769ASV): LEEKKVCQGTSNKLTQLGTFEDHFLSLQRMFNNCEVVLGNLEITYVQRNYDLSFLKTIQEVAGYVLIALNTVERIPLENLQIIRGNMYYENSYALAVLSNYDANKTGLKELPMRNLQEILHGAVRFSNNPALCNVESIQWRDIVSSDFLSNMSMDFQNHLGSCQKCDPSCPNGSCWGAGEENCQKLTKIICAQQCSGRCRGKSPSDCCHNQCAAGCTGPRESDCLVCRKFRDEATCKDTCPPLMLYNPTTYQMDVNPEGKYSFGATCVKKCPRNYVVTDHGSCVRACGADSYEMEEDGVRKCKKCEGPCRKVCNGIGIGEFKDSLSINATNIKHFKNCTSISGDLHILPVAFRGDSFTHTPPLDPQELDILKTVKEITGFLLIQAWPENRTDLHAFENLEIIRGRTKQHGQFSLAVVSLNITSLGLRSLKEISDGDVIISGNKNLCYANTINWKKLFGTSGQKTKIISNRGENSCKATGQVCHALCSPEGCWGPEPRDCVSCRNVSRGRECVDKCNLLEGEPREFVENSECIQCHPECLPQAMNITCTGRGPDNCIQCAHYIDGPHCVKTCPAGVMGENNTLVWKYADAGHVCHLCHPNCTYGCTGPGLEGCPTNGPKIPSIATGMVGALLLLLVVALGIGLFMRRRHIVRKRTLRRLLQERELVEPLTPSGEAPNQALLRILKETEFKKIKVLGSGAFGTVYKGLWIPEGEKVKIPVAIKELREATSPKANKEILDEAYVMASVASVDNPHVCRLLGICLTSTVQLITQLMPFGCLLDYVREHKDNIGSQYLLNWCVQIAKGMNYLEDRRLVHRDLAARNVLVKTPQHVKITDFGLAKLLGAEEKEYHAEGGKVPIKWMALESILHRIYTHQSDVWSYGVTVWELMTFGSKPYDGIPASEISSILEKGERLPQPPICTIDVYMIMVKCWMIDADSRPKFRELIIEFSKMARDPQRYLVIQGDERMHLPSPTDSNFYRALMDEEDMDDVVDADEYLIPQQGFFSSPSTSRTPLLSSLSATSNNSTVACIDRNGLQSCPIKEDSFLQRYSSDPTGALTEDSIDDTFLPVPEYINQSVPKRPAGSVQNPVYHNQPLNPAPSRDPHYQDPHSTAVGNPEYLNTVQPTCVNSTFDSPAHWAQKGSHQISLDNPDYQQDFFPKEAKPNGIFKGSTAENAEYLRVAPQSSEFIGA
T4 sequence (P04626 with tags, fused parts or gaps INS775YVMA): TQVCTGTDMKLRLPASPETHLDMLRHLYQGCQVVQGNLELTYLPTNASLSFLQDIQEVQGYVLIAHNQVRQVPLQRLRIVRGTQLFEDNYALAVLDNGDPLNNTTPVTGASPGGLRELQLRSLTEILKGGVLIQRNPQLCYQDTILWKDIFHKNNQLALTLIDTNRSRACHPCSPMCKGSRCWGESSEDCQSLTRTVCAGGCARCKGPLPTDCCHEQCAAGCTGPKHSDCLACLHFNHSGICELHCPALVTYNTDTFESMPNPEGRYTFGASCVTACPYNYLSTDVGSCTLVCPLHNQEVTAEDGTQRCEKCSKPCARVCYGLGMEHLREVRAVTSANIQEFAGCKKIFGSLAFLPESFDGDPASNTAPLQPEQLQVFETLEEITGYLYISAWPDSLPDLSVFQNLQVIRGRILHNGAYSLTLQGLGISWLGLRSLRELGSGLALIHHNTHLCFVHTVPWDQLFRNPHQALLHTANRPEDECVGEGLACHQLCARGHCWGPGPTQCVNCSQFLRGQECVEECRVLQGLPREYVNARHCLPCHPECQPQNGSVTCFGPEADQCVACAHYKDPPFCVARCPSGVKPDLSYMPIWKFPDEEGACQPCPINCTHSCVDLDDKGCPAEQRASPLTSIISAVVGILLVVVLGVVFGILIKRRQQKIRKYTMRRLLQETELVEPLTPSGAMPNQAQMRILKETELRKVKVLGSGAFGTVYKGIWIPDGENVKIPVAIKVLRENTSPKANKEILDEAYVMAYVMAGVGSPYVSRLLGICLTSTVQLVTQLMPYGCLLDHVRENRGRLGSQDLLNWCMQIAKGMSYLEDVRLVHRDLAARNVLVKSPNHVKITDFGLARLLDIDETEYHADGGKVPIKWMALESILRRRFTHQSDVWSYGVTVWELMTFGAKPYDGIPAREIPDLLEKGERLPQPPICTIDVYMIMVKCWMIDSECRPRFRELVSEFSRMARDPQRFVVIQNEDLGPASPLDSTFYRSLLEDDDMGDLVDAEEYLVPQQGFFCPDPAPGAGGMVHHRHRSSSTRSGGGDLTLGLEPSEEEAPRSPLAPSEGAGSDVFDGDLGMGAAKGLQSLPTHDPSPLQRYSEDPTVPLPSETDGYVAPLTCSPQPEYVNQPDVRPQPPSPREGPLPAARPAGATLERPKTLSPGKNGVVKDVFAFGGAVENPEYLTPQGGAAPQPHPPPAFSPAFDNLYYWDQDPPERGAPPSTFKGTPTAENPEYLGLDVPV
T1 sequence (P00533 with tags, fused parts or gaps INS773NPH): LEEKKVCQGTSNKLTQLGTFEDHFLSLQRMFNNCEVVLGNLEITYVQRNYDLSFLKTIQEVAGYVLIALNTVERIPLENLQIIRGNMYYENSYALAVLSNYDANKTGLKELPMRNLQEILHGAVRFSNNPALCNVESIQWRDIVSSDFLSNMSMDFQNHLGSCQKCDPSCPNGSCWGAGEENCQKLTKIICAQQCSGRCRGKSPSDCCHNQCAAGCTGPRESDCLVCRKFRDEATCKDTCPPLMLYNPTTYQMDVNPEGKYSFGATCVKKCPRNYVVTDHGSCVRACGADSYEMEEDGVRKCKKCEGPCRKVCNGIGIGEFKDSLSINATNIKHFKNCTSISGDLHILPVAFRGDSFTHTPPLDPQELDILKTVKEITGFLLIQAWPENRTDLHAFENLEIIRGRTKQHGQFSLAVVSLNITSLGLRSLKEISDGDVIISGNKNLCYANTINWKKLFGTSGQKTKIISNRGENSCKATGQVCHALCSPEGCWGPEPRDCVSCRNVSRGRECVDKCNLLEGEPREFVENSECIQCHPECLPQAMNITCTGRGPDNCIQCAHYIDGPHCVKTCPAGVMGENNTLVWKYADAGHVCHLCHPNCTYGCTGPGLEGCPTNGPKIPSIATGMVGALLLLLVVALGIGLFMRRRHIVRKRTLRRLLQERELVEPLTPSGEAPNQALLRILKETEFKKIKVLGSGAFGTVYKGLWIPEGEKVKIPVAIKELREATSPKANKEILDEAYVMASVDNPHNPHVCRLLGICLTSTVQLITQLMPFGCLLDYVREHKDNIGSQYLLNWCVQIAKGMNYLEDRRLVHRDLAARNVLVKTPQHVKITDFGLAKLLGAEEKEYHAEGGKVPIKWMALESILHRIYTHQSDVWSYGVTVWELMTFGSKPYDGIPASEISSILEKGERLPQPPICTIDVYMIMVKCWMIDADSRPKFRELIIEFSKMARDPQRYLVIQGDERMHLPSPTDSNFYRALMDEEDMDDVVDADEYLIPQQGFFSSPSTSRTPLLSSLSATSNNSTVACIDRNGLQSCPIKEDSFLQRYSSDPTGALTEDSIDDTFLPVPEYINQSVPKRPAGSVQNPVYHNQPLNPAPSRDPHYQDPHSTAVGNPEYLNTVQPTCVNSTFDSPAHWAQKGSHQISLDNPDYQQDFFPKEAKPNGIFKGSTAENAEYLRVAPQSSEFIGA

Structure (SMILES) | IC50 [1] [µM] | IC50 [2] [µM] | IC50 [3] [µM] | IC50 [4] [µM] | IC50 [5] [µM] | GI50 [6] [µM] | GI50 [7] [µM] | GI50 [8] [µM] | GI50 [9] [µM] | GI50 [10] [µM] | GI50 [11] [µM] | GI50 [12] [µM] | GI50 [13] [µM] | GI50 [14] [µM] | SOA DN AUCSYS (ng·h/mL)/(mg/kg) [15] | Cmax [15] [µg/mL] | hepatocyte CLint at 1 µM [16] [µL/min/1e6 cells] | hepatocyte CLint at 1 µM [17] [µL/min/1e6 cells]
C=CC(=O)Nc1cc(Nc2ncnc(Nc3cc(Cl)c(F)cc3C(C)(C)O)n2)c(OC)cc1N1CC[C@@H](N(C)C)C1 [Compound 33, (R)-N-(5-(4-(5-chloro-4-fluoro-2-(2-hydroxypropan-2-yl)phenylamino)-1,3,5-triazin-2-ylamino)-2-(3-(dimethylamino)pyrrolidin-1-yl)-4-methoxyphenyl)acrylamide] | 0.014 | 0.0069 | 0.0006 | 0.0078 | 0.0122 | 0.0296 | 0.0221 | 0.0031 | 0.0711 | 0.0127 | 0.00097 | 0.0025 | 0.002 | > 3 | 432 (ng·h/mL)/(mg/kg) | 0.37 | 6.99 | 2.77
C=CC(=O)Nc1cc(Nc2nccc(Nc3cc(Cl)c(F)cc3C(C)(C)O)n2)c(OC)cc1N1C[C@@H](F)[C@@H](N(C)C)C1 [Compound 79, N-(5-(4-(5-chloro-4-fluoro-2-(2-hydroxypropan-2-yl)phenylamino)pyrimidin-2-ylamino)-2-((3 S,4R)-3-(dimethylamino)-4-fluoropyrrolidin-1-yl)-4-methoxyphenyl)acrylamide] | 0.0295 | 0.0432 | 0.0013 | 0.0188 | 0.356 | 0.167 | 0.176 | 0.013 | 0.233 | 0.124 | 0.0081 | 0.0144 | 0.0809 | > 3 | 50.1 (ng·h/mL)/(mg/kg) | 0.0525 | 24.1 | 7.36
C=CC(=O)Nc1cc(Nc2nccc(Nc3cc(Cl)c(F)cc3C(C)(C)O)n2)c(OC)cc1N1CC[C@@H](CN(C)C)C1 [Compound 86, (S)-N-(5-(4-(5-chloro-4-fluoro-2-(2-hydroxypropan-2-yl)phenylamino)pyrimidin-2-ylamino)-2-(3-((dimethylamino)methyl)pyrrolidin-1-yl)-4-methoxyphenyl)acrylamide] | 0.0215 | 0.0179 | 0.0006 | 0.0093 | 0.195 | 0.0598 | 0.0909 | 0.0291 | 0.249 | 0.0458 | 0.0078 | 0.0114 | 0.0186 | > 3 | 77.8 (ng·h/mL)/(mg/kg) | 0.0765 | 16.2 | 4.32
C=CC(=O)Nc1cc(Nc2ncnc(Nc3cc(Cl)c(F)cc3C(C)(C)O)n2)c(OC)cc1N1C[C@@H](F)[C@@H](N(C)C)C1 [Compound 93, N-(5-(4-(5-chloro-4-fluoro-2-(2-hydroxypropan-2-yl)phenylamino)-1,3,5-triazin-2-ylamino)-2-((3 S,4R)-3-(dimethylamino)-4-fluoropyrrolidin-1-yl)-4-methoxyphenyl) acrylamide] | 0.0331 | 0.0194 | 0.0016 | 0.0151 | 0.0516 | 0.105 | 0.0832 | 0.0073 | 0.166 | 0.0215 | 0.00092 | 0.0031 | 0.0032 | > 3 | 249 (ng·h/mL)/(mg/kg) | 0.498 | 11.5 | 5.01

— patent publication US20230293535A1, “ERBB/BTK INHIBITORS” (Dizal (Jiangsu) Pharmaceutical Co., Ltd., priority 2018, published 2023)
